Like-named read-outs stand apart in the source and are kept apart here. No end group written: not given here.
What was measured:
Caco-2 cells [1] = assay: Trans-epithelial transport of digested and non-digested hydrolysates, LC-MS/MS of AP and BL samples; conditions: without H2O2; for common sequences in AP pea digested vs. BL pea digested samples: digested pea hydrolysate; for common sequences in BL rice digested vs. BL rice not digested samples: rice hydrolysates; for detection in the AP pea and BL pea samples: non-digested pea hydrolysate
Protocol: (§5) Caco-2 cells, obtained from INSERM (Paris, France) were routinely sub-cultured at 50% confluence and maintained at 37°C in a 5% CO2 atmosphere in DMEM containing 25 mM of glucose, 3.7 g/L of NaHCOs, 4 mM of stable L-glutamine, 1% non-essential amino acids, 100 U/L of penicillin and 100 µg/L of streptomycin (complete medium), supplemented with 10% heat-inactivated FBS. To facilitate the establishment of a confluent cell monolayer, cells were seeded on a Transwell at a density of 3.5 × 10^5 cells/cm^2 in complete medium supplemented with 10% FBS in both the AP and BL compartments for a period of 2 days. Cells were seeded, and on day three, they were moved to an FBS-free medium in the AP compartment. They were then allowed to differentiate for 18-21 days, with three weekly medium changes in between. Transepithelial electrical resistance (TEER) of differentiated Caco-2 cells was measured at 37 °C using the Millicell voltmeter device (Millipore Co., Billerica, MA, USA) both before and after the transport experiments for monitoring the integrity of the cell monolayers.
(§6) TEER measurement was used to verify the integrity and differentiation of the cell monolayer prior to transport experiments. Pea and rice peptides trans-epithelial transit was assessed in differentiated Caco-2 cells in transport buffer solution (137 mM NaCl, 5.36 mM KCl, 1.26 mM CaCl2, and 1.1 mM MgCl2, 5.5 mM glucose). The apical (AP) solutions were kept at pH 6.0 (buffered with 10 mM morpholinoethane sulfonic acid) and the basolateral (BL) solutions were kept at pH 7.4 (buffered with 10 mM N-2-hydroxyethylpiperazine-N-4-butanesulfonic acid) in order to replicate the pH conditions found in vivo in the small intestinal mucosa. Before the transport assay, cells were equilibrated in HBSS for 15 minutes at 37°C. In the AP compartment with the AP transport solution (500 µL) and the BL compartment with the BL transport solution (700 µL), rice and pea (5 mg/mL) were added. All BL and AP solutions were collected after two hours of absorption experiment carried out at 37°C, and they were kept at - 80°C before analysis. Transport experiments were performed in duplicate.
(§7) The enzymatic hydrolysis of pea and rice peptides was performed using pepsin and trypsin to simulate gastrointestinal digestion. For pepsin and trypsin digestion, the pH of the solution was adjusted to pH 2 and 8, respectively, by adding 1 M HCl or 1 M NaOH. The pepsin and trypsin solutions were added to the solution at a 1:100 (w/w) E/S ratio. After 60 min of peptic digestion at 37°C, pepsin was inactivated by adjusting the pH to 8; whereas the tryptic digestion (15 minutes) was blocked by heating the solution at 95 °C for 5 min (Lo et al., 2005). Collagen, pea and rice hydrolysates were passed through ultrafiltration membranes for the complete enzymes removal, using a Millipore UF system (Millipore, Bedford, MA, USA). Recovered peptides were lyophilized and stored at -80 °C for high-resolution LC-MS/MS analysis.

ABTS assay = type: biochemical
Protocol: The ABTS assay is based on the reduction of the 2,2-azino-bis-(3-ethylbenzothiazoline-6-sulfonic acid (ABTS) radical induced by antioxidants. The ABTS radical cation (ABTS+● was prepared by mixing a 7 mM ABTS solution (Sigma-Aldrich, Milan, Italy) with 2.45 mM potassium persulfate (1:1) and stored for 16 h at room temperature and in dark. To prepare the ABTS reagent, the ABTS+● was diluted in 5 mM phosphate buffer (pH 7.4) to obtain a stable absorbance of 0.700 (±0.02) at 730 nm. For the assay, 10 µL of samples were added to 140 µL of diluted the ABTS+● at the following final concentrations: 0.01 and 0.1 mg/mL for pea and rice peptides; 0.1, 1, 10 and 20 mg/mL for collagen peptides; 0.0001, 0.001 and 0.01 mg/mL for ascorbic acid; 1, 10, 25, 50, 100 µM for CR1, CP1 and CP2 peptides. The microplate was incubated for 30 min at 30 °C and the absorbance was read at 730 nm using a Synergy™ HT-multimode microplate reader (Biotek Instruments, Winooski, VT, USA). The TEAC values were calculated using a Trolox (Sigma-Aldrich, Milan, Italy) calibration curve (60-320 µM).
In this example, the antioxidant activity of pea and rice peptides was tested in vitro in an ABTS Assay as described above.
In this example, the antioxidant activity of peptides CP1, CP2 and CR1 (see Table 1 above) was tested in vitro in an ABTS Assay as described above.

FRAP assay [2] = type: biochemical; conditions: synthesized peptides up to 200 µM
Protocol: The FRAP assay evaluates the ability of a sample to reduce ferric ion (Fe3^+) into ferrous ion (Fe2^+). Thus, 10 µL of samples were mixed with 140 µL of FRAP reagent until reaching the following concentrations: 0.01, 0.1 and 1 mg/mL for pea and rice peptides; 1, 10 and 20 mg/mL for collagen peptides; 0.00001, 0.0001, 0.001 and 0.1 mg/mL for ascorbic acid; 10, 100 and 200 µM for CR1 and CP5 peptides; 25, 50, 100 and 200 µM for CP1 and CP2 peptides. The FRAP reagent was prepared by mixing 1.3 mL of a 10 mM TPTZ (Sigma-Aldrich, Milan, Italy) solution in 40 mM HCl, 1.3 mL of 20 mM FeCl3 × 6H2O and 13 mL of 0.3 M acetate buffer (pH 3.6). The microplate was incubated for 30 min at 37 °C and the absorbance was read at 595 nm. The results were calculated by a Trolox (Sigma-Aldrich, Milan, Italy) standard curve obtained using different concentrations (3-400 µM)). Absorbances were recorded on a Synergy™ HT-multimode microplate reader.
In this example, the antioxidant activity of pea and rice peptides was tested in vitro in a FRAP Assay as described above.
In this example, the antioxidant activity of peptides CP1, CP2, CP5 and CR1 was tested in vitro in a FRAP Assay as described above.

collagen [3] = assay: Western blot analysis, collagen protein level; type: cell-based
Protocol: (§1) Fibroblast cells (BJ-5ta, CRL-4001) were cultured in complete medium, a 4:1 mixture of Dulbecco's medium and Medium 199 with supplements as 4 parts of Dulbecco's Modified Eagle's Medium containing 4 mM L-glutamine, 4.5 g/L glucose and 1.5 g/L sodium bicarbonate, 1 part of Medium 199 supplemented with 0.01 mg/mL hygromycin B 10% fetal bovine serum with incubation at 37 °C under 5% CO2 atmosphere.
A total of 2.2 × 10^5 BJ-5ta cells/well were seeded on 24-well plates and incubated at 37 °C under a 5% CO2 atmosphere. The following day, cells were treated with pea, rice and collagen peptides (5 mg/mL), CR1, CR2, CP1, CP4 and CP5 (250 and 500 µM), CP2 (100, 250 and 500 µM) or vehicle (H2O) in a complete growth medium for 24 h. The day after, cells were stimulated with H2O2 (200 µM) or vehicle (H2O) for 1 h. […] Total proteins were quantified by Bradford method and 50 µg of total proteins loaded on a precast 7.5% Sodium Dodecyl Sulfate - Polyacrylamide (SDS-PAGE) gel at 130 V for 45 min. […] Target proteins, on milk or BSA blocked membrane, were detected by primary antibodies as follows: anti-collagen, anti-elastin, anti-phospho(Thr172)-AMPK, anti-phospho(Ser473)-Akt, anti-NF-κB and anti-β-actin. Secondary antibodies conjugated with HRP and a chemiluminescent reagent were used to visualize target proteins and their signal was quantified using the Image Lab Software (Biorad). […]

elastin [4] = assay: Western blot analysis, elastin protein level; type: cell-based
Protocol: as §1
A total of 2.2 × 10^5 BJ-5ta cells/well were seeded on 24-well plates and incubated at 37 °C under a 5% CO2 atmosphere. The following day, cells were treated with pea, rice and collagen peptides (5 mg/mL), CR1, CR2, CP1, CP4 and CP5 (250 and 500 µM), CP2 (100, 250 and 500 µM) or vehicle (H2O) in a complete growth medium for 24 h. The day after, cells were stimulated with H2O2 (200 µM) or vehicle (H2O) for 1 h. After each treatment, cells were scraped in 30 µL ice-cold lysis buffer [RIPA buffer + inhibitor cocktail + 1:100 PMSF + 1:100 Na-orthovanadate] and transferred in an ice-cold microcentrifuge tube. After centrifugation at 13.300g for 15 min at 4 °C, the supernatant was recovered and transferred into a new ice-cold tube. Total proteins were quantified by Bradford method and 50 µg of total proteins loaded on a precast 7.5% Sodium Dodecyl Sulfate - Polyacrylamide (SDS-PAGE) gel at 130 V for 45 min. Subsequently, the gel was pre-equilibrated with 0.04% SDS in H2O for 15 min at RT and transferred to a nitrocellulose membrane (Mini nitrocellulose Transfer Packs,) using a trans-Blot Turbo at 1.3 A, 25 V for 7 min. Target proteins, on milk or BSA blocked membrane, were detected by primary antibodies as follows: anti-collagen, anti-elastin, anti-phospho(Thr172)-AMPK, anti-phospho(Ser473)-Akt, anti-NF-κB and anti-β-actin. Secondary antibodies conjugated with HRP and a chemiluminescent reagent were used to visualize target proteins and their signal was quantified using the Image Lab Software (Biorad). The internal control β-actin was used to normalize loading variations. […]

collagen [5] = assay: ELISA assay, collagen secretion; type: cell-based, human; conditions: peptides of Table 1, BJ-5ta cells
Protocol: (§2) Cytokines, metalloproteases, collagen and elastin quantification was performed using human Authentikine® ELISA kits (Proteintech, Rosemont, USA) and Cusabio ELISA kits (Houston, TX, USA) according to the manufacturer's instruction and. Briefly, the supernatants collected from treated and H20-stimulated bj-5ta cells were centrifuged at 13,300 × g for 10 minutes at 4°C, then the pellet and insoluble material were discarded. For the experiments, 100 µL of samples were added to each well and the microplate was incubated for 2 hours at 37°C. After the incubation, the solutions were discarded and each well washed 4 times with 300 µL of Wash Buffer solution, then 100 µL of Detection antibody solution were added to each well and the microplate was incubated for 1 hours at 37°C. […] After 4 washes, the TMB substrate (100 µL/well) was added and reactions were stopped after 20 min with 50 µL of Stop Solution and the absorbance at 450 and 540 nm was measured using the Synergy H1 plate reader (BioTek Instruments).
(§3) In this example, the secretion of collagen and elastin with pea and rice peptides was tested in vitro by an ELISA assay as described above. Thereby, ECM stability is evaluated.
(§4) In this example, the secretion of collagen and elastin with the peptides of Table 1 was tested in vitro by an ELISA assay as described above. Thereby, ECM stability is evaluated.

elastin [6] = assay: ELISA assay, elastin secretion; type: cell-based, human
Protocol: as §2, §3, §4

BJ-5ta cells = assay: Cell viability assay (MTT); type: cell-based
Protocol: as §1
A total of 10^4 fibroblasts/well were seeded in 96-well plates and treated with pea, rice and collagen peptides (from 1 to 20 mg/mL) and ascorbic acid (from 0.1 to 10 mg/mL), CR1, CR2, CP1, CP2, CP3, CP4 and CP5 peptides (from 25 to 500 µM) or H2O2 (from 0.1 to 1 mg/mL) or vehicle (H2O) in complete growth media for 48 h at 37 °C under 5% CO2 atmosphere. Subsequently, the treatment solvent was aspirated and 100 µL/well of 3-(4,5-dimethylthiazol-2-yl)-2,5-diphenyltetrazolium bromide (MTT) filtered solution added. After 2 h of incubation at 37 °C under 5% CO2 atmosphere, 0.5 mg/mL solution was aspirated and 100 µL/well of the lysis buffer (8 mM HCl + 0.5% NP-40 in DMSO) added. After 10 min of slow shaking, the absorbance at 575 nm was read on the Synergy H1 fluorescence plate reader (Biotek, Bad Friedrichshall, Germany).
In this example, the effect of pea and rice peptides was tested on BJ-5ta cells in a modified MTT assay as described above. […]

FRAP assay [7] = type: biochemical; conditions: pea and rice peptides 0.01-1 mg/mL; collagen 1-20 mg/mL; ascorbic acid 0.00001-0.1 mg/mL
Caco-2 cells [8] = tested on: Caco-2 cells
Protocol: as §5, §6, §7

[9] = 250 µM, screening among CR1, CR2, CP1, CP2, CP4, CP5
[10] = 500 µM, among CR1, CR2, CP1, CP2, CP4, CP5

In the case of “SEQ-ID:15: peptide identified by MS in pea hydrolysate; sequence not printed in the text (LDEAAEPAALER; listed as Pisum sativum)”, the “common sequences in AP pea digested vs. BL pea digested samples” value (Caco-2 cells [1]) is reported as “found”.
With “DWLLGATGTGK (DVVLLGATGTGK; listed as Oryza sativa) [CR3]” the “common sequences in BL rice digested vs. BL rice not digested samples” value (Caco-2 cells [1]) was “found”.
In the case of “SEQ-ID:2: peptide identified by MS in pea hydrolysate; sequence not printed in the text (DTSETWAIR; listed as Pisum sativum)”, the “common sequences in AP pea digested vs. BL pea digested samples” value (Caco-2 cells [1]) is reported as “found” and the “detection in the AP pea and BL pea samples” value (shortened to “detection”) (Caco-2 cells [1]) is reported as “detected”.
With DWPEWVR [CP2] the “ABTS radical scavenging activity compared with CR1” value (ABTS assay; synthesized peptides 1-100 µM) was “lower than with CR1”, the “ABTS radical scavenging activity, dependence on concentration” value (ABTS assay; synthesized peptides 1-100 µM) was “decreases with increasing concentration” and the “ABTS radical scavenging activity” value (ABTS assay; synthesized peptides 1-100 µM, compared to control C) was “lower than the one of the control C”. The “ferric reducing antioxidant power compared with CR1” value (FRAP assay [2]) was “higher than with CR1”, the “ferric reducing antioxidant power, dependence on concentration” value (FRAP assay [2]) was “increases with increasing concentration” and the “ferric reducing antioxidant power” value (FRAP assay [2]; compared to control C) was “higher than the control C”. For the same molecule, the “modulation of collagen protein level” value (collagen [3]; [9]) was “highest modulation of collagen protein level”, the “modulation of collagen protein level” value (collagen [3]; [10]) was “highest modulation of collagen protein level” and the “modulation of elastin protein level” value (elastin [4]; [9]) was “highest modulation of elastin protein level”. The “modulation of elastin protein level compared to CP4 and CP5” value (elastin [4]; 500 µM) was “higher modulation of elastin protein level compared to CP4 and CP5”, the “modulation of elastin protein level” value (elastin [4]; [10]) was “highest modulation of elastin protein level” and the “stimulation of collagen secretion” value (collagen [5]) was “strongest stimulation of collagen secretion”. For the same molecule, the “stimulation of elastin secretion” value (elastin [6]; CP2 at 100 µM versus other peptides at 500 µM) was “higher than for the other tested peptides at a concentration of 500 µM”, the “stimulation of elastin secretion” value (elastin [6]; peptides of Table 1, BJ-5ta cells) was “strongest stimulation of elastin secretion” and the “common sequences in AP pea digested vs. BL pea digested samples” value (Caco-2 cells [1]) was “found”. For the same molecule, the “detection” value (Caco-2 cells [1]) was “detected”.
For “SEQ-ID:12: peptide identified by MS in pea hydrolysate; sequence not printed in the text (SSNNQLDQMPR; listed as Pisum sativum)”, the “common sequences in AP pea digested vs. BL pea digested samples” value (Caco-2 cells [1]) was “found” and the “detection” value (Caco-2 cells [1]) was “detected”.
In the case of “SEQ-ID:35: peptide identified by MS in pea hydrolysate; sequence not printed in the text (SVFNGEVR; listed as Pisum sativum)”, the “common sequences in AP pea digested vs. BL pea digested samples” value (Caco-2 cells [1]) is reported as “found”.
In the case of “GSRQEEEEDEDEERQPR [CP4, GSRQEEEEDEDEERQPR]”, the “common sequences in AP pea digested vs. BL pea digested samples” value (Caco-2 cells [1]) is reported as “found” and the “detection” value (Caco-2 cells [1]) is reported as “detected”.
With OO [H2O2] the “concentration up to which no cytotoxic effects” value (BJ-5ta cells; skin fibroblasts exposed to increasing concentration of H2O2) was no more than 400 µM.
For ENIADAAR [CP3, ENIADAAR], the “common sequences in AP pea digested vs. BL pea digested samples” value (Caco-2 cells [1]) was “found” and the “detection” value (Caco-2 cells [1]) was “detected”.
With O=C1O[C@H]([C@@H](O)CO)C(O)=C1O [ascorbic acid] the “ABTS radical scavenging activity, dependence on concentration” value (ABTS assay; pea and rice peptides 0.01 and 0.1 mg/mL, collagen 0.1-20 mg/mL, ascorbic acid 0.0001-0.01 mg/mL) was “decreasing radical scavenging activity with increasing concentration”, the “ferric reducing antioxidant power, dependence on concentration” value (FRAP assay [7]) was “increase” and the “concentrations with effects on cellular viability” value (BJ-5ta cells; BJ-5ta cells, 48 h) was “more than 1 mg/mL”.
For AGFAGDDAPR [CR2, AGFAGDDAPR], the “common sequences in BL rice digested vs. BL rice not digested samples” value (Caco-2 cells [8]) was “found”.
With AEDVGEEVER [CR1, AEDVGEEVER] the “common sequences in BL rice digested vs. BL rice not digested samples” value (Caco-2 cells [1]) was “found”.
